These results are taken from US8404672B2, “Substituted heterocyclic compounds” (Bristol-Meyers Squibb Company, priority 2009, dated 2013).

The term EC50 denotes the concentration giving half of the maximal effect. Higher therefore signals a less potent agent. The term IC50 denotes the concentration that inhibits the measured activity by half. A low value points to inhibition by little substance.

Experiment [1] concerns the target T1, S1P3 (membranes from S1P3 transfected CHO cells) (Homo sapiens, UniProt Q99500).
T1 construct: expressed in transfected cells; host or cells: CHO cells
Briefly: Method B: Receptor [35S] GTPγS SPA Binding Assay, S1P3. Format: biochemical. Here is the method:
(§1) Method B: Receptor [35S] GTPγS SPA Binding Assays
(§2) Membranes prepared from S1P1 or S1P3 transfected CHO cells ([…]) were incubated in 96-well white plates (CORNING® 3693) with test compounds diluted in DMSO, in 50 μl of reaction mixture containing 7.5 μl WGA-PVT beads (20 mg/ml), and 5 μM GDP, 20 mM HEPES pH 7.4, 100 mM NaCl, 1 mM EDTA, 5 mM MgCl2, 10 μg/ml saponin, 0.1% BSA, and 1 μM leupeptin. The assay was initiated with the addition of […] of 0.2 nM [^35S]-GTPγS (1250 Ci/mmol; NEN) in assay buffer. After 90 min incubation at room temperature, spin the plate at 1000 rpm for 5 min. The bound radionuclides were measured at TOPCOUNT®, expressed as % response relative to S1P (1 μM) activation. Data was analyzed using the four parameter logistic equation in Excel. The four parameters in the equation, Y=A+((B−A)/(1+((EC50/X)^D))), are described as following: A is the Y value (agonist activity) at the bottom plateau; B is the Y value at the top plateau; EC50 is the X value (agonist concentration) when the response is halfway between bottom and top; D is Hill coefficient. Curves were not generated for compounds having Ymax values were below 50%.
(§3) Compounds of the present invention and Comparative Compound A were tested in the Receptor [35S] GTPγS Binding Assays (Method A) and Receptor [35S] In some instances, the value is an average of multiple experiments where N is the number of experiments conducted that provided satisfactory dose response curves. When more than one batch of an example was tested, the value presented is from a batch which allowed a comparison of GTPγS S1P1 and GTPγS S1P3 in which the most number of experiments were performed. Preferably, the same batch was examined in Method A and Method B. Data was not averaged across different batches of an example compound.

For a further experiment, the target named is T2, human S1P1 (Homo sapiens, UniProt P21453).
T2 construct: expressed in transfected cells; host or cells: CHO cells
In words: S1P1 Binding Assay (33P-S1P radioligand competition, CHO cell membranes). The settings on record: membranes from CHO cells expressing human S1P1; 0.03 nM 33P-S1P; 60 min room temperature. Here is the method:
Membranes were prepared from CHO cells expressing human S1P1. Cells were dissociated in buffer containing 20 mM HEPES, pH 7.5, 50 mM NaCl, 2 mM EDTA and Protease Inhibitor cocktail (Roche), and disrupted on ice using the Polytron homogenizer. The homogenate was centrifuged at 20,000 rpm (48,000 g) and the supernatant was discarded. The membrane pellets were resuspended in buffer containing 50 mM HEPES, pH 7.5, 100 mM NaCl, 1 mM MgCl2, 2 mM EDTA and stored in aliquots at −80° C. after protein concentration determination.
Membranes ([…]) and 0.03 nM final concentration of ^33P—S1P ligand (1 mCi/ml, American Radiolabeled Chemicals) were added to the compound plates. Binding was performed for 60 min at room temperature, terminated by collecting the membranes onto GF/B filter plates, and radioactivity was measured by TOPCOUNT®. The competition data of the test compounds over a range of concentrations was plotted as percentage inhibition of radioligand specific binding. The IC50 is defined as the concentration of competing ligand needed to reduce specific binding by 50%.
Compounds of the present invention and Comparative Compound A were tested in the S1P1 binding assay described hereinabove and the results rounded to two digits, shown in Table A were obtained. In some instances, the value is an average of multiple experiments where N is the number of experiments conducted that provided satisfactory dose response curves. When more than one batch of an example was tested, the value presented is from the batch which allowed a comparison of GTPγS S1P1 and GTPγS S1P3 in Method A (Data shown in Table B). Data was not averaged across different batches of an example compound.
(Loss of bound radioactivity is the signal in a displacement assay; it reports binding, not function.)

Experiment [2] has as its target T3, S1P1 (membranes from S1P1/CHO cells) (Homo sapiens, UniProt P21453).
T3 construct: expressed in transfected cells; host or cells: S1P1/CHO cells
Briefly: Method A: Receptor [35S] GTPγS Binding Assay, S1P1. Format: biochemical. The settings on record: for EC50: Method A, S1P1/CHO membranes; for GTPγS S1P3/S1P1 (Method A): ratio of GTPγS S1P3 EC50 to GTPγS S1P1 EC50, Method A. Here is the method: (§4) Method A: Receptor [35S] GTPγS Binding Assays
(§5) Compounds were loaded in a 384 Falcon v-bottom plate (0.5 μl/well in a 3-fold dilution). Membranes prepared from S1P1/CHO cells or EDG3-Gal5-bla HEK293T cells were added to the compound plate (40 μl/well, final protein 3 μg/well) with MULTIDROP®. [^35S]GTP (1250 Ci/mmol, Perkin Elmer) was diluted in assay buffer: 20 mM HEPES, pH 7.5, 10 mM MgCl2, 150 mM NaCl, 1 mM EGTA, 1 mM DTT, 10 μM GDP, 0.1% fatty acid free BSA, and 10 μg/ml Saponin to 0.4 nM. 40 μl of the [^35S] GTP solution was added to the compound plate with a final concentration of 0.2 nM. The reaction was kept at room temperature for 45 min. At the end of incubation, all the mixtures in the compound plate were transferred to a 384 well FB filter plates via GPCR robot system. The filter plate was washed with water 4 times by using the modified manifold Embla plate washer and dried at 60° C. for 45 min. 30 μA of MicroScint 20 scintillation fluid was added to each well for counting at Packard TOPCOUNT®. EC50 is defined as the agonist concentration that corresponds to 50% of the Ymax (maximal response) obtained for each individual compound tested.
as §3
A general note: GTPγS resists hydrolysis and so accumulates on activated G proteins.

The target of experiment [3] is T4, S1P1 (membranes from S1P1 transfected CHO cells) (Homo sapiens, UniProt P21453).
T4 construct: expressed in transfected cells; host or cells: CHO cells
Briefly: Method B: Receptor [35S] GTPγS SPA Binding Assay, S1P1. Format: biochemical. The note with it: for EC50: Method B SPA, S1P1 transfected CHO membranes; for GTPγS S1P3/S1P1 (Method B): ratio of GTPγS S1P3 EC50 to GTPγS S1P1 EC50, Method B. Here is the method:
as §1, §2, §3

Experiment [4] deals with T5, S1P3 (membranes from EDG3-Gal5-bla HEK293T cells) (Homo sapiens, UniProt Q99500).
T5 construct: expressed in transfected cells; host or cells: EDG3-Gal5-bla HEK293T cells
Briefly: Method A: Receptor [35S] GTPγS Binding Assay, S1P3. Format: biochemical. Here is the method:
as §4, §5, §3

Where a name gives a salt, the structure may show the parent alone.

T2 sequence (P21453 whole entry): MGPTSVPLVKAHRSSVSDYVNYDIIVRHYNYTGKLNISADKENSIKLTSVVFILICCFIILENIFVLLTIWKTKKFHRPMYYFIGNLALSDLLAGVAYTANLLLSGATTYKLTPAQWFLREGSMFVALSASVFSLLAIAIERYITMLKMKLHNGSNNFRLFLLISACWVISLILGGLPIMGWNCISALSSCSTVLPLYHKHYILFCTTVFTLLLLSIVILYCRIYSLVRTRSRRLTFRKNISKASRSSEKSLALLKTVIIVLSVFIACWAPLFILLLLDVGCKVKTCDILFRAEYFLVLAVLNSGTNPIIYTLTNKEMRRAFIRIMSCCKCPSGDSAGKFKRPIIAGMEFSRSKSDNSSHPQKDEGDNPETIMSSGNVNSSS
T3 sequence (P21453 whole entry): as above
T4 sequence (P21453 whole entry): as above
T5 sequence (Q99500 whole entry): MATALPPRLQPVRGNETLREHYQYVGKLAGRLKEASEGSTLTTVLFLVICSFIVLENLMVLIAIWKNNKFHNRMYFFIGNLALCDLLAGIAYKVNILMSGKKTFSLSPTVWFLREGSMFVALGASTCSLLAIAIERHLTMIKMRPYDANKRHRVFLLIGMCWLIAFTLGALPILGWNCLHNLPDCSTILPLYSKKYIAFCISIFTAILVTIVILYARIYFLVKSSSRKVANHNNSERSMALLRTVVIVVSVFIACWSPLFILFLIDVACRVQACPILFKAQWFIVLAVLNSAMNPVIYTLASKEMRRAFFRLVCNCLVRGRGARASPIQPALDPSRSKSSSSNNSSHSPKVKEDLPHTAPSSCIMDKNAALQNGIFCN
T1 sequence (Q99500 whole entry): as above

Turning to `O=C(O)C1CN(Cc2ccc(-c3noc(-c4noc(-c5ccccn5)c4C(F)(F)F)n3)cc2)C1` [Example 2, 1-(4-(5-(5-(Pyridin-2-yl)-4-(trifluoromethyl)isoxazol-3-yl)-1,2,4-oxadiazol-3-yl)benzyl)azetidine-3-carboxylic acid], the figures for the half-maximal effective concentration (EC50) in experiment [1], in experiment [2] and in experiment [3] were 4400 nM, 4.5 nM and 0.34 nM, respectively. Besides, on human S1P1, the IC50 came to 0.39 nM. Further, in experiment [3], the “GTPγS S1P3/S1P1 (Method B)” value is 13,000.

`COC(=O)c1c(-c2ccccn2)noc1-c1nc(-c2ccc(CN3CC(C(=O)O)C3)cc2)no1` [Example 7, 1-(4-(5-(4-(Methoxycarbonyl)-3-(pyridin-2-yl)isoxazol-5-yl)-1,2,4-oxadiazol-3-yl)benzyl)azetidine-3-carboxylic acid] showed an IC50 at human S1P1 of 0.53 nM. The EC50 in experiment [4] was 19000 nM. In experiment [2], the half-maximal effective concentration (EC50) was found to be 3.3 nM and the “GTPγS S1P3/S1P1 (Method A)” value was 5,800.

For `CCCc1c(-c2ccccn2)noc1-c1nc(-c2ccc(CN3CC(C(=O)O)C3)cc2)no1` [Example 6, 1-(4-(5-(4-Propyl-3-(pyridin-2-yl)isoxazol-5-yl)-1,2,4-oxadiazol-3-yl)benzyl)-azetidine-3-carboxylic acid, 2,2,2-trifluoroacetic acid salt], the concentration giving a half-maximal response (EC50) in experiment [1] is 430 nM. The same compound gave a 50% inhibitory concentration (IC50) at human S1P1 of 0.019 nM. In addition, in experiment [3], the EC50 worked out at 0.082 nM and the “GTPγS S1P3/S1P1 (Method B)” value is reported as 5,200.

On human S1P1, `O=C(O)C1CN(Cc2ccc(-c3noc(-c4cc(-c5ccccn5)no4)n3)cc2)C1` [Example 8] displayed an IC50 of 6.5 nM. The EC50 amounted to 2300 nM in experiment [4], 450 nM in experiment [2] and 68 nM in experiment [3]. The “GTPγS S1P3/S1P1 (Method A)” value in experiment [2] stood at 5.1.

At human S1P1, `CC(C)c1c(-c2nc(-c3ccc(CN4CC(C(=O)O)C4)cc3)no2)noc1-c1ccccn1` [Example 4, 1-(4-(5-(4-Isopropyl-5-(pyridin-2-yl)isoxazol-3-yl)-1,2,4-oxadiazol-3-yl)benzyl)azetidine-3-carboxylate, 2,2,2-trifluoroacetic acid salt] came in with a concentration for half-maximal inhibition (IC50) of 0.18 nM. Also, the EC50 in experiment [4] was found to be 7000 nM; in experiment [2] it was 39 nM; in experiment [3], 1 nM. Besides, in experiment [2], the “GTPγS S1P3/S1P1 (Method A)” value is given as 179.

With `CCCc1c(-c2nc(-c3ccc(CN4CC(C(=O)O)C4)cc3)no2)noc1-c1ccccn1` [Example 3, 1-(4-(5-(4-Propyl-5-(pyridin-2-yl)isoxazol-3-yl)-1,2,4-oxadiazol-3-yl)benzyl)azetidine-3-carboxylic acid, 2,2,2-trifluoroacetic acid salt], the EC50 in experiment [1] amounted to 280 nM; in experiment [4], 2100 nM; in experiment [2], 0.82 nM; in experiment [3], 0.65 nM. In addition, the IC50 on human S1P1 amounted to 0.021 nM. The “GTPγS S1P3/S1P1 (Method A)” value in experiment [2] is given as 2,600. In experiment [3], the “GTPγS S1P3/S1P1 (Method B)” value came to 430.

Take `O=C(O)C1CN(Cc2ccc(-c3noc(-c4cc(-c5ccccc5)c(C(F)(F)F)s4)n3)cc2)C1` [Comp. A, 1-(4-(5-(4-Phenyl-5-(trifluoromethyl)thiophen-2-yl)-1,2,4-oxadiazol-3-yl)benzyl)azetidine-3-carboxylic acid, reference compound]: the “GTPγS S1P3/S1P1 (Method A)” value in experiment [2] is recorded as 1.2. In experiment [3], the “GTPγS S1P3/S1P1 (Method B)” value turned out to be 78.

The compound `CCc1c(-c2nc(-c3ccc(CN4CC(C(=O)O)C4)cc3)no2)noc1-c1ccccn1` [Example 5, 1-(4-(5-(4-Ethyl-5-(pyridin-2-yl)isoxazol-3-yl)-1,2,4-oxadiazol-3-yl)benzyl)-azetidine-3-carboxylic acid, 2,2,2-trifluoroacetic acid salt] came in with an IC50 on human S1P1 of 0.051 nM. Further, the results for the EC50 in experiment [4], in experiment [2] and in experiment [3] were 1900 nM, 3.7 nM and 0.61 nM, respectively. In addition, the “GTPγS S1P3/S1P1 (Method A)” value in experiment [2] came to 513.
